# Target: PCSK9 (Homo sapiens, UniProt Q8NBP7)
# Experiment: Assay 2 Biophysical human PCSK9 assay (SPR, Biacore)
# Assay type: binding
# Parameters: biotinylated human PCSK9 (31-692)-Avi-His6; His6 (C)
# Settings: single-cycle kinetics, 30° C., geometric mean, read-out: Assay 2 (PCSK9 BIAcore DBA Cr) GMean Kd
# Protocol: The SPR binding experiments were performed on a Biacore S200 optical biosensor unit at 30° C. A Series S Sensor Chip SA that is designed to bind biotinylated molecules for interaction analysis in Biacore systems was equilibrated at room temperature prior to use. The running buffer for protein tethering and subsequent ligand binding experiments was 10 mM HEPES pH 7.4, 150 mM NaCl, 0.05% (v/v) Tween 20 pH 7.4.
# For the surface tethering of PCSK9, biotinylated human PCSK9 (31-692)-Avi-His6 at a concentration of 0.5 mg/mL was used. Prior to the surface tethering, the surface was exposed to a solution of 50 mM NaOH, 500 mM NaCl via 3 consecutive injections of this solution with a contact time of 60 s and a flowrate of 10 μL min^−1 to remove non-conjugated streptavidin. The PCSK9 protein was diluted to a concentration of 20 μg/mL using running buffer and injected with a contact time of 180-300 s and a flowrate of 10 μL min^−1 over a single flow channel (typically flow channel 2 or flow channel 4) with the aim to achieve protein capture levels of >5000 response units (RU). Remaining biotin binding sites were blocked via 2 consecutive injections of a 10 μM D-biotin solution in running buffer with a contact time of 60 s and a flowrate of 10 μL min^−1 over all flow-channels. Flow-channels 1 and 3 typically served as a reference surface throughout the subsequent binding experiments.
# The binding experiments were all performed at a flow rate of 30 PL min^−1 and by employing the method of single-cycle kinetics. This approach involves the sequential injection of a compound concentration series without regeneration steps. A contact time between 90-150 s was selected, which was followed by a 40 min dissociation phase to allow for a proper estimation of the dissociation rate constant. Test compounds were delivered in DMSO at a concentration of 10 mM and a digital dispenser HP D300 was used to set up the compound concentration series using 6 concentrations. The tested concentrations have been 30, 100, 300, 1000, 3000 and 10000 nM. Prior to injecting any compound, the surfaces were equilibrated by injecting running buffer over them in three separate pulses. The data collection rate was set to 10 Hz.
# The raw sensorgrams of the compound injections were first subjected to reference subtraction (subtracting the signal from flow channel 1 and/or 3 from the signal from channels 2 and/or 4 respectively) and then blank subtraction (subtracting the signal from injecting DMSO controls from the reference subtracted data). The resulting double-referenced sensorgrams were then fitted using a 1:1 binding interaction model using the manufactures software package to extract kinetic- and affinity data. Active compounds have been defined by creating a detectable binding signal at the highest compound concentration ([…]) of 3 RUs. Kinetic- and affinity data on active compounds are only provided for those compounds where the binding signal at the highest compound concentration ([…]) is 50% of the theoretical maximum binding signal for a 1:1 binding interaction (Rmax, typically between 15-20 RUs) in order to enable a proper fitting of the data.
# PCSK9, sequence (Q8NBP7 31-692): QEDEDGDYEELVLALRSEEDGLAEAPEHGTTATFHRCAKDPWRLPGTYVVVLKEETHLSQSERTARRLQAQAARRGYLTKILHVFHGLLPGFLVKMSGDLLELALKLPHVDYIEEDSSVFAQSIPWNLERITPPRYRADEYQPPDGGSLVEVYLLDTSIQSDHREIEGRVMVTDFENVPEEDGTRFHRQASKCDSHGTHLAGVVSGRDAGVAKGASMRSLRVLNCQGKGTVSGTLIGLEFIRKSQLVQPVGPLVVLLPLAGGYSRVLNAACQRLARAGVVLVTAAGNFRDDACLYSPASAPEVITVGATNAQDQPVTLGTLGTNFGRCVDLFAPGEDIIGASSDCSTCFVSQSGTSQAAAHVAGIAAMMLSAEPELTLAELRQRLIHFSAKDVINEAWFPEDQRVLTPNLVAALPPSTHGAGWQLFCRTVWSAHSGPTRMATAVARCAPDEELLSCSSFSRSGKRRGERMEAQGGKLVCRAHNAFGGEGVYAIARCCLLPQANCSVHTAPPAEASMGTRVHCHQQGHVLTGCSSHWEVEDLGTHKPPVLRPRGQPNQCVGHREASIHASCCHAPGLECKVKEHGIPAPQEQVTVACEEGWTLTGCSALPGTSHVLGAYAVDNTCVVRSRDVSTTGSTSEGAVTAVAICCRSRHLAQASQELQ
row,SMILES,Kd [nM]
1,"COc1ccc(=O)n(-c2ccc(N[C@H]3CC[C@H](Nc4ncc(C)nn4)C3)nc2)c1 [Example 133, 5-Methoxy-6′-(((1S,3S)-3-((6-methyl-1,2,4-triazin-3-yl)amino)cyclopentyl)amino)-2H-[1,3′-bipyridin]-2-one]",17
2,"Cc1cnc(N[C@H]2CC[C@H](Nc3ccc(-n4cc(Cl)ccc4=O)cn3)C2)nn1 [Example 134, 5-Chloro-6′-(((1S,3S)-3-((6-methyl-1,2,4-triazin-3-yl)amino)cyclopentyl)amino)-2H-[1,3′-bipyridin]-2-one]",9.1
3,"Cc1cnc(N[C@H]2CC[C@H](Nc3ccc(-n4cccc(C(F)(F)F)c4=O)cn3)C2)nn1 [Example 135, 6′-(((1S,3S)-3-((6-Methyl-1,2,4-triazin-3-yl)amino)cyclopentyl)amino)-3-(trifluoromethyl)-2H-[1,3′-bipyridin]-2-one]",3.9
4,"Cc1cnc(N[C@H]2CC[C@H](Nc3ccc(-n4cccc(OC(F)F)c4=O)cn3)C2)nn1 [Example 187, 3-(Difluoromethoxy)-6′-(((1S,3S)-3-((6-methyl-1,2,4-triazin-3-yl)amino)cyclopentyl)amino)-2H-[1,3′-bipyridin]-2-one]",3.7
5,"Cc1cnc(N[C@H]2CC[C@H](Nc3ccc(-n4c(=O)ccc5cccnc54)cn3)C2)nn1 [Example 197, 1-(6-(((1S,3S)-3-((6-Methyl-1,2,4-triazin-3-yl)amino)cyclopentyl)amino)pyridin-3-yl)-1,8-naphthyridin-2(1H)-one]",2.3
6,"Cc1cnc(N[C@H]2CC[C@H](Nc3ccc(-n4cccc(-c5cnn(C)c5)c4=O)cn3)C2)nn1 [Example 198, 6′-(((1S,3S)-3-((6-Methyl-1,2,4-triazin-3-yl)amino)cyclopentyl)amino)-3-(1-methyl-1H-pyrazol-4-yl)-2H-[1,3′-bipyridin]-2-one]",3.8
7,"Cc1cnc(N[C@H]2CC[C@H](Nc3ccc(-n4c(=O)n(C)c5ccc(C#N)cc54)cn3)C2)nn1 [Example 210, 1-Methyl-3-(6-(((1S,3S)-3-((6-methyl-1,2,4-triazin-3-yl)amino)cyclopentyl)amino)pyridin-3-yl)-2-oxo-2,3-dihydro-1H-benzo[d]imidazole-5-carbonitrile]",0.6
8,"Cc1cnc(N[C@H]2CC[C@H](Nc3ccc(-n4c(=O)n(C)c5cccnc54)cn3)C2)nn1 [Example 212, 1-Methyl-3-(6-(((1S,3S)-3-((6-methyl-1,2,4-triazin-3-yl)amino)cyclopentyl)amino)pyridin-3-yl)-1,3-dihydro-2H-imidazo[4,5-b]pyridin-2-one]",1.7
9,"Cc1cnc(N[C@H]2CC[C@H](Nc3ccc(-n4nccc(Cl)c4=O)cn3)C2)nn1 [Example 221, 4-Chloro-2-(6-(((1S,3S)-3-((6-methyl-1,2,4-triazin-3-yl)amino)cyclopentyl)amino)pyridin-3-yl)pyridazin-3(2H)-one]",1.7

# Source: patent publication US20240228469A1, “PCSK9 INHIBITORS AND METHODS OF USE THEREOF” (AstraZeneca AB, priority 2022, published 2024)
